Laboratory results reported in patent US12233081B2, “Hygromycin a compounds and methods of treating spirochete diseases” (priority 2018, dated 2025).
Like-named read-outs stand apart in the source and are kept apart here.

Key:
gut microbiome = conditions: mouse, in vivo
B. burgdorferi N40 = assay: C3H mice infected with Borrelia burgdorferi, cell counts in skin tissue; format: in vivo; conditions: for # of B. burgdorferi cells in 100 mg skin tissue: 5 days of dosing
Protocol: C3H mice (Charles River Laboratories) are used in classical Lyme disease infection model. Mice were rested for more than 1 day after delivery before infected with 10^5 B. burgdorferi N40 cells by subcutaneous injection. Infection was established for 3 weeks. 100 μl of saline, ceftriaxone or hygromycin A was administered by IP injection. Compounds of the invention can also be tested for efficacy as described herein.
Ceftriaxone (USP grade) was purchased from Sigma-Aldrich. Saline was purchased from Baxter Healthcare. Ceftriaxone powder was dissolved into saline to 31.2 mg/ml solution. Hygromycin A stock solution at 200 mg/ml was diluted into saline to make 50 mg/ml (250 mg/kg), 15 mg/ml (75 mg/kg), 14 mg/ml (70 mg/kg), 10 mg/ml (50 mg/kg) and 5 mg/ml (25 mg/kg) solutions.
In the B. burgdorferi mice infection model, skin is the tissue with highest bacterial burden. After sacrificing mice 2 days after 5 days of dosing, we took 100 mg skin tissue from mouse ear, homogenized the tissue and plated on BSK-II semi-agar plates for cell number counts. No colony appearing on the plates is considered as clearance of the infection.

## CC(=O)[C@H]1O[C@@H](Oc2ccc(/C=C(\C)C(=O)N[C@@H]3[C@H](O)[C@@H](O)[C@H]4OCO[C@H]4[C@@H]3O)cc2O)[C@@H](O)[C@@H]1O [Hygromycin A]
Gut microbiome; C3H, ip, 50 mg/kg, 5 days
  Camobacteriaceae change in percent relative abundance: −0.001%
  Chitinophagaceae change in percent relative abundance: 0.000%
  Christensenellaceae change in percent relative abundance: 0.000%
  Clostridiaceae change in percent relative abundance: −0.066%
  Clostridiales change in percent relative abundance: −0.099%
  Clostridiales family xi. incertae sedis change in percent relative abundance: −0.047%
  Clostridiales family xiii. incertae sedis change in percent relative abundance: −0.013%
  Coriobacteriaceae change in percent relative abundance: 0.014%
Gut microbiome
  overall disruption to the gut microbiome: considerably less severe
Gut microbiome; ip, 50 mg/kg
  Acholeplasmataceae change in percent relative abundance: 0.003%
  Aerococcaceae change in percent relative abundance: 0.001%
  Anaerolineaceae change in percent relative abundance: 0.000%
  Anaeroplasmataceae change in percent relative abundance: −0.007%
  Anaplasmataceae change in percent relative abundance: 0.000%
  Aspergillaceae change in percent relative abundance: 0.000%
  Asteraceae change in percent relative abundance: 0.001%
  Bacillaceae change in percent relative abundance: −0.021%
  Bacillales change in percent relative abundance: −0.108%
  Bacteroidaceae change in percent relative abundance: −14.397%
  Bifidobacteriaceae change in percent relative abundance: 0.000%
  Candidatus saccharibacteria change in percent relative abundance: −0.022%
  Corynebacteriaceae change in percent relative abundance: 0.000%
  Cytophagaceae change in percent relative abundance: 0.000%
  Deferribacteraceae change in percent relative abundance: 0.368%
  Defluviitaleaceae change in percent relative abundance: −0.001%
  Desulfobacteraceae change in percent relative abundance: 0.000%
  Enterobacteriaceae change in percent relative abundance: 1.250%
  Enterococcaceae change in percent relative abundance: 0.036%
  Erysipelotrichaceae change in percent relative abundance: 5.307%
  Eubacteriaceae change in percent relative abundance: 0.037%
  Fabaceae change in percent relative abundance: 0.000%
  Flavobacteriaceae change in percent relative abundance: 0.000%
  Fusobacteriaceae change in percent relative abundance: 0.000%
  Gammaproteobacteria change in percent relative abundance: −0.020%
  Gloeobacteraceae change in percent relative abundance: −0.020%
  Gracilibacteraceae change in percent relative abundance: −0.112%
  Halomonadaceae change in percent relative abundance: 0.000%
  Hylidae change in percent relative abundance: 0.000%
  Kopriimonadaceae change in percent relative abundance: 0.000%
  Lachnospiraceae change in percent relative abundance: 1.241%
  Lactobacillaceae change in percent relative abundance: 9.667%
  Leuconostocaceae change in percent relative abundance: −0.001%
  Methylobacteriaceae change in percent relative abundance: 0.000%
  Microbacteriaceae change in percent relative abundance: 0.000%
  Mucoraceae change in percent relative abundance: 0.000%
  Nostocaceae change in percent relative abundance: 0.000%
  Onagraceae change in percent relative abundance: 0.000%
  Oscillatoriales change in percent relative abundance: 0.000%
  Oscillospiraceae change in percent relative abundance: −0.009%
  Paenibacillaceae change in percent relative abundance: −0.001%
  Pasteurellaceae change in percent relative abundance: 0.000%
  Pelobacteraceae change in percent relative abundance: 0.000%
  Peptococcaceae change in percent relative abundance: −0.885%
  Peptoniphilaceae change in percent relative abundance: 0.000%
  Peptostreptococcaceae change in percent relative abundance: −0.194%
  Physalacriaceae change in percent relative abundance: 0.000%
  Poaceae change in percent relative abundance: 0.019%
  Polyangiaceae change in percent relative abundance: 0.000%
  Porphyromonadaceae change in percent relative abundance: −0.221%
  Prevotellaceae change in percent relative abundance: −0.319%
  Pseudomonadaceae change in percent relative abundance: 0.000%
  Rhizobiaceae change in percent relative abundance: 0.000%
  Rhodobacteraceae change in percent relative abundance: 0.000%
  Rikenellaceae change in percent relative abundance: −4.710%
  Ruminococcaceae change in percent relative abundance: 1.486%
  Sphingomonadaceae change in percent relative abundance: 0.000%
  Spirochaetaceae change in percent relative abundance: −0.074%
  Spiroplasmataceae change in percent relative abundance: −0.107%
  Staphylococcaceae change in percent relative abundance: 0.004%
  Streptococcaceae change in percent relative abundance: 2.055%
  Thermoanaerobacteraceae change in percent relative abundance: −0.018%
  Veillonellaceae change in percent relative abundance: 0.000%
  Verrucomicrobiaceae change in percent relative abundance: −0.017%
  Xanthomonadaceae change in percent relative abundance: 0.000%
Gut microbiome; po, 50 mg/kg
  Acholeplasmataceae change in percent relative abundance: 0.005%
  Candidatus saccharibacteria change in percent relative abundance: −0.043%
B. burgdorferi N40; 25 mg/kg Oral gavage
  # of B. burgdorferi cells in 100 mg skin tissue: <1
B. burgdorferi N40; 50 mg/kg Oral gavage
  # of B. burgdorferi cells in 100 mg skin tissue: <1
B. burgdorferi N40; 70 mg/kg Oral gavage
  # of B. burgdorferi cells in 100 mg skin tissue: <1
B. burgdorferi N40; 75 mg/kg IP injection
  # of B. burgdorferi cells in 100 mg skin tissue: <1
B. burgdorferi N40; 250 mg/kg Oral gavage
  # of B. burgdorferi cells in 100 mg skin tissue: <1
B. burgdorferi N40; 5 days of treatment, both IP injection and oral gavage
  clearance of the Borrelia burgdorferi infection: cleared the Borrelia burgdorferi infection
